Reference: article PMC8603350, “A Remote Secondary Binding Pocket Promotes Heteromultivalent Targeting of DC-SIGN” (Journal of the American Chemical Society, 2021)
Numbering of substitutions follows the chain as printed. Entries after “also recorded” stand apart in the source; their conditions may differ.

How the values were obtained:
[1] = target: T1, DC-SIGN CRD M270F (Homo sapiens, UniProt Q9NNX6, M270F); experiment: 15N HSQC NMR binding experiments with M270F mutant; details: absence of Ca2+
T1 construct: His-tagged DC-SIGN CRD wild-type as well as the M270F mutant; His-tag; made in house; host or cells: E. coli BL21(DE3), pET28a; gene from GenScript
T1 sequence (Q9NNX6 263-378 M270F limits assumed): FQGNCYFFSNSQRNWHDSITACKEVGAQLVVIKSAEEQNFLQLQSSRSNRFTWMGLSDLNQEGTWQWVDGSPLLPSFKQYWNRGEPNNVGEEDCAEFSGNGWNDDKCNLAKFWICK

[2] = test system: DC-SIGN+ Raji cells; experiment: Liposome binding assay, flow cytometry; format: cell-based
Method: If not stated otherwise, all media and supplements for cell culture experiments were purchased from Thermo Fisher Scientific. Raji, THP-1 and U937 cell lines (ATCC) were grown in complete growth medium containing RPMI1640 medium, 10% FCS, 100 U mL-1 Penicillin-Streptomycin and GlutaMax at 37°C and 5% CO2. Cells were monitored with a light microscope (IT40 5PH, VWR) and subcultured every 2 -3 days to maintain cell densities ranging from of 0.5 - 3 x 10^6 cells per mL.
CLR-expressing cell lines were generated as described before.4,27 Briefly, DC-SIGN, Langerin, murine Langerin and murine Dectin-1 cDNAs (Sinobiologicals) were cloned into a lentiviral BIC-PGK-Zeo-T2a-mAmetrine:EF1A construct by Gibson assembly (NEB) according to the manufacturer’s protocol. HEK293 cells were transfected with the lentiviral vector together with third-generation packaging vectors and viral particles were then used for transduction of Raji cells. In analogy, DC-SIGN and Langerin-expressing THP-1 and U937 cell lines were generated by lentiviral transduction.
Liposome binding assay – flow cytometry
Liposome binding to CLR-expressing cells was assayed as previously described.27 Briefly, 0.05 x 10^6 cells were plated in transparent conical-bottom 96 well microtiter plates (Nunc) in a volume of 100 µL medium. Plates were centrifuged at 500 x g for 3 minutes, supernatant was aspirated, and cells were resuspended in 100 µL medium, containing 16 µM liposomes. In control experiments, cells were incubated with medium containing 10 mM EDTA or 50 µg mL-1 mannan for 15 min at 4 °C, prior to liposome application. After 1 h incubation at 4 °C in the dark, cells were centrifuged at 500 x g for 3 min and the supernatant was discarded. Cells wer e resuspended in 200 µL ice-cold medium and analyzed by detecting the co-formulated Alexa 647 dye via flow cytometry with a 654 nm laser and a 670/14 nm filter (Attune Nxt, life technologies).
Flow cytometry data was processed using FlowJo (BD Bioscience). Mean fluorescence intensity (MFI) was further analyzed and plotted using GraphPad Prism (GraphPad […]
To monitor allosteric activation of DC-SIGN by glycomimetic 48, the described protocol was adjusted as follows. DC-SIGN+ Raji cells were plated in transparent conical-bottom 96 well microtiter plates (Nunc) in a volume of 100 µL medium. Plates were centrifuged at 500 x g for 3 minutes, supernatant was aspirated, and cell were resuspended in 25 µL medium supplemented with varying concentrations of monovalent carbohydrates or 0.5 mM 48. Homomultivalent liposomes carrying either natural carbohydrates or 48 were added at a final concentration of 16 µM. Liposome binding was subsequently quantified by measuring Alexa 647 fluorescence in flow cytometry experiments. Statistical significance by means of a student’s t-test was assessed based on averaged normalized MFIs from four biological replicates each conducted as technical duplicates. A p-value < 0.05 was set as significance cut-off.

[3] = target: T2, DC-SIGN CRD (Homo sapiens, UniProt Q9NNX6); experiment: 15N HSQC NMR titration; format: binding; details: 10 mM CaCl2, MES pH 6.0
T2 construct: His-tagged DC-SIGN CRD wild-type as well as the M270F mutant; His-tag; made in house; host or cells: E. coli BL21(DE3), pET28a; gene from GenScript
T2 sequence (Q9NNX6 263-378 limits assumed): T1 sequence (Q9NNX6 263-378 M270F limits assumed) with F8M

[4] = target: T3, DC-SIGN ECD (Homo sapiens, UniProt Q9NNX6); experiment: Direct 19F R2-filtered NMR binding experiments (CF3 resonance)
T3 construct: DC-SIGN extracellular domain (ECD); made in house; host or cells: E. coli BL21(DE3), pET30b; gene from GenScript
T3 sequence (Q9NNX6 59-404 limits assumed): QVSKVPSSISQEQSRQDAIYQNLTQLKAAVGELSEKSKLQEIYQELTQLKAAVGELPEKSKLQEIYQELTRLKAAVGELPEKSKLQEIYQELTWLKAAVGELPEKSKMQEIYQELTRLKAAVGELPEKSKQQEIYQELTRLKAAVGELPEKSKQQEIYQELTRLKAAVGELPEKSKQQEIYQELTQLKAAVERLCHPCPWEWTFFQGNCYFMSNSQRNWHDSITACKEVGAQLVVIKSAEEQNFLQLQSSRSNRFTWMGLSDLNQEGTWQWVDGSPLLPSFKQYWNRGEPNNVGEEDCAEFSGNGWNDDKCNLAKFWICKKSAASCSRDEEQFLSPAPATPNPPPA
Method: KI values were determined as previously described for Langerin and the DC-SIGN CRD.6 Briefly, competitive binding experiments were conducted with 49 at a concentration of 0.1 mM and varying competitor concentrations [I]T. KI and [P]T values were derived from Equation 8 in a two-parameter fit.
R2,obs = R2,f + (R2,b − R2,f)pb […]
θ = cos−1 ( ) ,a = KD + KI + [L]T + [I]T − [P]T
b = ([I]T − [P]T)KD + ([L]T − [P]T)KD + KIKD, c = −KIKD[P]T
KD determination from 19F NMR CSPs
For KD determination from 19F NMR CSPs, samples and measurements were set up as described for 19F R2-filtered NMR but at a single relaxation time T = 0 s. CSP 19F, T were calculated from the chemical shift of the 19F resonance of 48 in the presence of protein δT at increasing ligand concentrations and the chemical shift in absence of protein δf at a concentration of 1 mM via Equation 4.
The KD value was calculated from CSP19F, T values in a two -parameter fit using Equation 10, using a fixed protein concentration [P] T and a CSP19F of 0 ppm as a lower bound. CSP19F,b corresponds to the top asymptote and was kept variable. As in Equation 9, pb represents the fraction of bound protein.

[5] = target: T3, DC-SIGN ECD; experiment: 19F NMR reporter displacement assay transferred to DC-SIGN ECD; format: binding; details: 0.1 mM reporter 49; for 48 estimated, receptor precipitation above 1 mM
[6] = target: T3, DC-SIGN ECD; experiment: KD determination from 19F NMR CSPs; format: binding; details: direct observation of CF3 chemical shift; read-out: KD (19F CSP)

- binding to M270F mutant [1]: abrogation of 48-binding
- Kd [3]: 460 ± 160 µM
- Kd ([4]; direct observation of CF3 relaxation rate R2,obs): 480 ± 100 µM
- apparent KD values lower than the determined KI ([4]; direct-binding NMR KD vs RDA KI): about 3 fold
- Ki [5]: 1150 ± 10 µM
- Kd [6]: 370 ± 60 µM
SMILES: NC[C@H]1O[C@H](Oc2ccc(-c3ccc(C(=O)O)cc3)cc2C(F)(F)F)[C@@H](O)[C@@H](O)[C@@H]1O [compound 48]
- effect of soluble compound on binding of Fuc-Lip liposomes ([2]; 0.5 mM soluble 48, liposomes with 2.5 mol % Fuc-Lip, p < 0.05, n = 4): significantly enhances; also recorded: significantly increased
- binding of homomultivalent liposomes ([2]; 42-Lip up to 1.26%, 48 up to 1.66% total lipid concentration): does not show any binding
- molar glycomimetic/Man ratio around which the cooperative binding effect saturates ([2]; heteromultivalent liposomes with Man-Lip): ~0.5
